Measured values: patent publication US11708348B2, “Protease inhibitors for treatment of coronavirus infections” (The Scripps Research Institute, priority 2021, dated 2023)

Tested on: SARS-CoV-2 strain USA-WA1/2020
Experiment: microbe, parasite or virus in culture
Type: cell-based
Details: Severe acute respiratory syndrome coronavirus 2, HeLa-ACE2, 24 h, HeLa-ACE2 cells, SARS-CoV-2 infection, 24 h; read-out: EC50, uM (Hela)

Row | SMILES | EC50 [µM]
1 | Cc1ccccc1NC(=O)C(=O)N1C[C@H]2[C@@H]([C@H]1C(=O)N[C@@H](C[C@@H]1CCNC1=O)C(=O)COC(F)(F)F)C2(C)C [Compound 473, (1R,2S,5S)-6,6-dimethyl-N-((S)-3-oxo-1-((S)-2-oxopyrrolidin-3-yl)-4-(trifluoromethoxy)butan-2-yl)-3-(2-oxo-2-(o-tolylamino)acetyl)-3-azabicyclo[3.1.0]hexane-2-carboxamide] | < 0.05
2 | CC1(C)[C@@H]2[C@@H](C(=O)N[C@@H](C[C@@H]3CCNC3=O)C(=O)COC(F)(F)F)N(C(=O)C(=O)NC3(C(F)(F)F)CC3)C[C@@H]21 [Compound 475, (1R,2S,5S)-6,6-dimethyl-N-((S)-3-oxo-1-((S)-2-oxopyrrolidin-3-yl)-4-(trifluoromethoxy)butan-2-yl)-3-(2-oxo-2-((1-(trifluoromethyl)-cyclopropyl)amino)acetyl)-3-zabicyclo[3.1.0]hexane-2-carboxamide] | 0.05 to 0.2
3 | O=C1NCC[C@H]1C[C@H](NC(=O)[C@@H]1[C@H]2CCC[C@H]2CN1C(=O)c1csc(C(F)(F)F)n1)C(=O)COC(F)(F)F [Compound 476, (1S,3aR,6aS)-N-((S)-3-oxo-1-((S)-2-oxopyrrolidin-3-yl)-4-(trifluoromethoxy)butan-2-yl)-2-(2-(trifluoromethyl)-thiazole-4-carbonyl)-octahydrocyclo-penta[c]pyrrole-1-carboxamide] | < 0.05
4 | CC(C)(F)c1cc(C(=O)N2C[C@H]3[C@@H]([C@H]2C(=O)N[C@@H](C[C@@H]2CCNC2=O)C(=O)COC(F)(F)F)C3(C)C)no1 [Compound 478, (1R,2S,5S)-3-(5-(2-fluoropropan-2-yl)isoxazole-3-carbonyl)-6,6-dimethyl-N-((S)-3-oxo-1-((S)-2-oxopyrrolidin-3-yl)-4-(trifluoromethoxy)butan-2-yl)-3-azabicyclo[3.1.0]hexane-2-carboxamide] | < 0.05
5 | O=C(Nc1ccccc1F)C(=O)N1CC2(C[C@H]1C(=O)N[C@@H](C[C@@H]1CCNC1=O)C(=O)COC(F)(F)F)CC2(F)F (stereo partly drawn) [Compound 482, (6S)-1,1-difluoro-5-(2-((2-fluorophenyl)amino)-2-oxoacetyl)-N-((S)-3-oxo-1-((S)-2-oxopyrrolidin-3-yl)-4-(trifluoromethoxy)butan-2-yl)-5-azaspiro[2.4]heptane-6-carboxamide] | 0.05 to 0.2
6 | O=C1NCC[C@H]1C[C@H](NC(=O)[C@@H]1[C@H]2CCC[C@H]2CN1C(=O)c1cc(C(F)(F)F)on1)C(=O)COC(F)(F)F [Compound 483, (1S,3aR,6aS)-N-((S)-3-oxo-1-((S)-2-oxopyrrolidin-3-yl)-4-(trifluoromethoxy)butan-2-yl)-2-(5-(trifluoromethyl)-isoxazole-3-carbonyl)octahydro-cyclopenta[c]pyrrole-l-carboxamide] | 0.05 to 0.2
7 | CC(F)(F)CNC(=O)C(=O)N1C[C@H]2[C@@H]([C@H]1C(=O)N[C@@H](C[C@@H]1CCNC1=O)C(=O)COC(F)(F)F)C2(C)C [Compound 484, (1R,2S,5S)-3-(2-((2,2-difluoropropyl)amino)-2-oxoacetyl)-6,6-dimethyl-N-((S)-3-oxo-1-((S)-2-oxopyrrolidin-3-yl)-4-(trifluoromethoxy)butan-2-yl)-3-azabicyclo[3.1.0]-hexane-2-carboxamide] | 0.05 to 0.2
8 | CC1(C)[C@@H]2[C@@H](C(=O)N[C@@H](C[C@@H]3CCNC3=O)C(=O)COC(F)(F)F)N(C(=O)C(=O)NC34CC(F)(C3)C4)C[C@@H]21 [Compound 486, (1R,2S,5S)-3-(2-((3-fluorobicyclo[1.1.1]-pentan-1-yl)amino)-2-oxoacetyl)-6,6-dimethyl-N-((S)-3-oxo-1-((S)-2-oxopyrrolidin-3-yl)-4-(trifluoromethoxy)butan-2-yl)-3-azabicyclo[3.1.0]-hexane-2-carboxamide] | 0.05 to 0.2
